IC50 data for 19 compounds are collected here from patent publication US11186592B2, “Thiazolopyridine derivatives as adenosine receptor antagonists” (MERCK PATENT GMBH, priority 2017, dated 2021).

The structures appear in SMILES notation.

A word on the IC50: it is the concentration needed to halve the response being measured.

Format in all cases: cell-based
One test addresses T1, human A2A receptor (Homo sapiens, UniProt P29274).
T1 construct: expressed in transfected cells; host or cells: HEK293
As to the kind of experiment: cAMP (HTRF) functional assay, recombinant HEK293 cells expressing human A2A receptor, agonist NECA. The method in brief: (§1)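 Forskolin, test compounds and agonist were added together to the cells and incubated for 30 min. Cellular cAMP was then quantified by HTRF. Raw signals were normalized to an inhibitor control and a neutral DMSO control, and the normalized data were curve-fitted.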
On the technique in general: Time-resolved FRET reads energy transfer from a long-lived donor to a nearby acceptor.

For the next test, the target named is T2, human A2B receptor (Homo sapiens, UniProt P29275).
T2 construct: expressed in transfected cells; host or cells: HEK293
T2 sequence (P29275 1-332): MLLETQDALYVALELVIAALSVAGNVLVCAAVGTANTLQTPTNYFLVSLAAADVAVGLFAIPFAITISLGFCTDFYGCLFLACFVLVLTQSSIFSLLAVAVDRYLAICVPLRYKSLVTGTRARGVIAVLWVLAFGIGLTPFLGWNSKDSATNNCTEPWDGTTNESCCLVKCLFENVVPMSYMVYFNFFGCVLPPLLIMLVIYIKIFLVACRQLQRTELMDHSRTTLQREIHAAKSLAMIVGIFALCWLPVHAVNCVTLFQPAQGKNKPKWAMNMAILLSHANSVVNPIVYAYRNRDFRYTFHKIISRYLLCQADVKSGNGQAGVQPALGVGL
As to the kind of experiment: cAMP (HTRF) functional assay, recombinant HEK293 cells expressing human A2B receptor, agonist NECA. The procedure, abridged:
as §1

In a further test the target is T3, human A1 receptor (Homo sapiens, UniProt P30542).
T3 construct: expressed in transfected cells; host or cells: CHO
T3 sequence (P30542 1-326): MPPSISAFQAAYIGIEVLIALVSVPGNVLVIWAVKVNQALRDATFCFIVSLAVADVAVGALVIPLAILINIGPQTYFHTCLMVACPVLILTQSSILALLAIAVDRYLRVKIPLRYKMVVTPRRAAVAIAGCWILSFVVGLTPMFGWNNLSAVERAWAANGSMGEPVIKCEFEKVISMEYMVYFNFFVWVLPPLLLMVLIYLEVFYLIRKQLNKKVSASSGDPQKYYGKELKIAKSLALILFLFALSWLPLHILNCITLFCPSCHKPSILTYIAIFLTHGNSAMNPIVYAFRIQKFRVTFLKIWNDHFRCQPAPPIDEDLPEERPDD
As to the kind of experiment: cAMP (HTRF) functional assay, recombinant CHO cells expressing human A1 receptor, forskolin + agonist CPA. The procedure, abridged:
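Gi-coupled readout: CHO cells expressing human A1 or A3 receptor were treated with forskolin, test compound and agonist (CPA for A1, IB-MECA for A3) for 30 min; cellular cAMP was then measured by HTRF. Data were normalized to inhibitor and DMSO controls and curve-fitted.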

In a further test the target is T4, human A3 receptor (Homo sapiens, UniProt P0DMS8).
T4 construct: expressed in transfected cells; host or cells: CHO
T4 sequence (P0DMS8 1-318): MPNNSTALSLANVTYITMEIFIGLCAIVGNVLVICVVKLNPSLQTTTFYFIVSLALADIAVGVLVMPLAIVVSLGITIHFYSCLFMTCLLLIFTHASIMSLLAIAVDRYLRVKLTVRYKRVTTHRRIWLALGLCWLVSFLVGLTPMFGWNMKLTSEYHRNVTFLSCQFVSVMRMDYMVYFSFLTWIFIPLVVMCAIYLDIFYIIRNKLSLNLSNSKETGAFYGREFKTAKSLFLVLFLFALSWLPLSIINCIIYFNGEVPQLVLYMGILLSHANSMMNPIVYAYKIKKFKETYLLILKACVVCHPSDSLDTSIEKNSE
As to the kind of experiment: cAMP (HTRF) functional assay, recombinant CHO cells expressing human A3 receptor, forskolin + agonist IB-MECA. As for the experimental part: The functional activities of human A2A, A2B, A1 and A3 receptors were determined by quantification of cAMP, being the second messenger for adenosine receptors.
For human A1 and A3 receptors, recombinant CHO cells, expressing either A1 or A3-receptor, were used. As both receptors couple to Gi proteins, the assay protocol was adapted:
Cells were seeded into 384-well plates, forskolin, test compounds and agonists (CPA for A1- and IB-MECA for A3-receptor) were added. After 30 min incubation, HTRF reagents (cAMP dynamic 2, Cis Bio) were added and the cellular cAMP levels were determined using the ENVISION (Perkin Elmer) plate reader. Obtained raw data were normalized against the inhibitor control and the neural control (DMSO) and the normalized data were fitted using GeneData software.

T1 sequence (P29274 whole entry): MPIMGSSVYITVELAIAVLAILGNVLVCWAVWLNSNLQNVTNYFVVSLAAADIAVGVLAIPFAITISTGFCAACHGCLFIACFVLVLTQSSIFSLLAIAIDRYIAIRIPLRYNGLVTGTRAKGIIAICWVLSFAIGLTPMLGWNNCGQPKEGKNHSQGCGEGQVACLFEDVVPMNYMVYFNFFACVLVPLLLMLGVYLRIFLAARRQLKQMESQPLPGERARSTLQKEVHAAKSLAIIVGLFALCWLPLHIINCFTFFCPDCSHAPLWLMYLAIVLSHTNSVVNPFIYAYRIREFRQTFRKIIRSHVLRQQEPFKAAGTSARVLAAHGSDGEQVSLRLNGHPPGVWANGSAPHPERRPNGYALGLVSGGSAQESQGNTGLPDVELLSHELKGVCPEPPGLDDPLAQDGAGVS

On to `COc1ncc(-c2ccccc2)c2sc(NC(=O)N3CCC4(CCOC4)C3)nc12` (stereo not shown) [compound 54, 2-Oxa-7-aza-spiro[4.4]nonane-7-carboxylic acid (4-methoxy-7-phenyl-thiazolo[4,5-c]pyridin-2-yl)-amide], for which the IC50 on human A2A receptor was under 10 nM; at human A2B receptor, under 100 nM; on human A1 receptor, under 1000 nM; at human A3 receptor, over 1000 nM.

Turning to `COc1ncc(-c2cnn(C)c2)c2sc(NC(=O)N3CCC4(CCOC4)C3)nc12` (stereo not shown) [compound 82, 2-Oxa-7-aza-spiro[4.4]nonane-7-carboxylic acid [4-methoxy-7-(1-methyl-1H-pyrazol-4-yl)-thiazolo[4,5-c]pyridin-2-yl]-amide], the IC50 was under 10 nM on human A2A receptor, under 100 nM at human A2B receptor, over 1000 nM at human A1 receptor and over 1000 nM at human A3 receptor.

For `COc1ncc(-c2ccccc2)c2sc(NC(=O)c3cnc(C)o3)nc12` [compound 186, 2-Methyl-oxazole-5-carboxylic acid (4-methoxy-7-phenyl-thiazolo[4,5-c]pyridin-2-yl)-amide], the IC50 on human A2A receptor is under 10 nM; at human A2B receptor, under 100 nM; on human A1 receptor, under 1000 nM; at human A3 receptor, under 1000 nM.

On to `COc1ncc(-c2ccccc2)c2sc(NC(=O)c3ccc(C(=O)N(C)C)cc3)nc12` [compound 58, N-(4-Methoxy-7-phenyl-thiazolo[4,5-c]pyridin-2-yl)-N′,N′-dimethyl-terephthalamide], for which the IC50 was under 10 nM at human A2A receptor, under 10 nM at human A2B receptor, under 1000 nM on human A1 receptor and over 1000 nM at human A3 receptor.

Consider `COc1ncc(-c2ccccc2)c2sc(NC(=O)C3CC3)nc12` [compound 187, Cyclopropanecarboxylic acid (4-methoxy-7-phenyl-thiazolo[4,5-c]pyridin-2-yl)-amide], for which the IC50 at human A2A receptor was under 10 nM; on human A2B receptor, under 100 nM; on human A1 receptor, under 1000 nM; on human A3 receptor, under 1000 nM.

Turning to `COc1ncc(N2CCOCC2)c2sc(NC(=O)c3ccc(C(=O)N(C)C)cc3)nc12` [compound 15, N-(4-Methoxy-7-morpholin-4-yl-thiazolo[4,5-c]pyridin-2-yl)-N′,N′-dimethyl-terephthalamide], the IC50 at human A2A receptor is under 10 nM; on human A2B receptor, under 100 nM; at human A1 receptor it was over 1000 nM; on human A3 receptor, over 1000 nM.

As for `COc1ncc(C2CCOCC2)c2sc(NC(=O)c3ccc(C(=O)N(C)C)cc3)nc12` [compound 113, N-[4-Methoxy-7-(tetrahydro-pyran-4-yl)-thiazolo[4,5-c]pyridin-2-yl]-N′,N′-dimethyl-terephthalamide], the IC50 is under 10 nM at human A2A receptor, under 100 nM on human A2B receptor, over 1000 nM on human A1 receptor and over 1000 nM on human A3 receptor.

As for `COc1ncc(N2CCOCC2)c2sc(NC(=O)N3CC[C@]4(CCOC4)C3)nc12` [compound 17, (5S)-N-[4-methoxy-7-(morpholin-4-yl)-[1,3]thiazolo[4,5-c]pyridin-2-yl]-2-oxa-7-azaspiro[4.4]nonane-7-carboxamide], the IC50 was under 10 nM at human A2A receptor, under 1000 nM at human A2B receptor, over 1000 nM at human A1 receptor and over 1000 nM at human A3 receptor.

On to `COc1ncc(N2CCOCC2)c2sc(NC(=O)c3cnn(C)c3)nc12` [compound 171, 1-Methyl-1H-pyrazole-4-carboxylic acid (4-methoxy-7-morpholin-4-yl-thiazolo[4,5-c]pyridin-2-yl)-amide], for which the half-maximal inhibitory concentration (IC50) on human A2A receptor was under 10 nM; at human A2B receptor it was under 100 nM; at human A1 receptor, under 1000 nM; on human A3 receptor, under 1000 nM.

On to `COc1ncc(-c2ccccc2)c2sc(NC(=O)c3ccc(N4C(=O)CCC4=O)cc3)nc12` [compound 213, 4-(2,5-Dioxo-pyrrolidin-1-yl)-N-(4-methoxy-7-phenyl-thiazolo[4,5-c]pyridin-2-yl)-benzamide], for which the concentration for half-maximal inhibition (IC50) at human A2A receptor was under 10 nM; at human A2B receptor it was under 100 nM; at human A1 receptor it was under 1000 nM; at human A3 receptor, over 1000 nM.

Consider `COc1ncc(-c2ccccc2)c2sc(NC(=O)c3cnc(C)s3)nc12` [compound 190, 2-Methyl-thiazole-5-carboxylic acid (4-methoxy-7-phenyl-thiazolo[4,5-c]pyridin-2-yl)-amide], for which the half-inhibitory concentration (IC50) is under 10 nM at human A2A receptor, under 100 nM on human A2B receptor, under 1000 nM at human A1 receptor and under 1000 nM on human A3 receptor.

In the case of `COc1ncc(-c2ccccc2)c2sc(NC(=O)N3CC[C@]4(CCCOC4)C3)nc12` [compound 205, (R)-7-Oxa-2-aza-spiro[4.5]decane-2-carboxylic acid (4-methoxy-7-phenyl-thiazolo[4,5-c]pyridin-2-yl)-amide], the IC50 was under 10 nM at human A2A receptor, under 100 nM on human A2B receptor, over 1000 nM at human A1 receptor and over 1000 nM on human A3 receptor.

In the case of `COc1ncc(-c2cnn(C)c2)c2sc(NC(=O)C3CC3)nc12` [compound 179, Cyclopropanecarboxylic acid [4-methoxy-7-(1-methyl-1H-pyrazol-4-yl)-thiazolo[4,5-c]pyridin-2-yl]-amide], the IC50 was under 10 nM on human A2A receptor, under 100 nM at human A2B receptor, over 1000 nM at human A1 receptor and under 1000 nM on human A3 receptor.

With `COc1ncc(N2CCOCC2)c2sc(NC(=O)N3CC[C@@]4(CCOC4)C3)nc12` [compound 18, (5R)-N-[4-methoxy-7-(morpholin-4-yl)-[1,3]thiazolo[4,5-c]pyridin-2-yl]-2-oxa-7-azaspiro[4.4]nonane-7-carboxamide], the IC50 was under 10 nM on human A2A receptor, under 1000 nM on human A2B receptor, over 1000 nM on human A1 receptor and over 1000 nM at human A3 receptor.

For the compound `COc1ncc(-c2ccccc2)c2sc(NC(=O)N3CC[C@]4(CCOC4)C3)nc12` [compound 207, (S)-2-Oxa-7-aza-spiro[4.4]nonane-7-carboxylic acid (4-methoxy-7-phenyl-thiazolo[4,5-c]pyridin-2-yl)-amide], the IC50 on human A2A receptor was under 10 nM; at human A2B receptor, under 100 nM; on human A1 receptor, under 1000 nM; at human A3 receptor, over 1000 nM.

Consider `COc1ccc(-c2cnc(OC)c3nc(NC(=O)N4CCC5(CCOCC5)C4)sc23)c(OC)n1` [compound 239, N-[7-(2,6-dimethoxypyridin-3-yl)-4-methoxy-[1,3]thiazolo[4,5-c]pyridin-2-yl]-8-oxa-2-azaspiro[4.5]decane-2-carboxamide], for which the IC50 on human A2A receptor was under 100 nM; at human A2B receptor, over 1000 nM; on human A1 receptor it was over 1000 nM; on human A3 receptor, over 1000 nM.

In the case of `COc1ncc(-c2ccccc2)c2sc(NC(=O)C3(N)CC3)nc12` [compound 203, 1-Amino-cyclopropanecarboxylic acid (4-methoxy-7-phenyl-thiazolo[4,5-c]pyridin-2-yl)-amide], the IC50 was under 10 nM on human A2A receptor, under 100 nM at human A2B receptor, under 1000 nM on human A1 receptor and under 1000 nM at human A3 receptor.

For `COc1ncc(C2CCOCC2)c2sc(NC(=O)c3cnn(C)c3)nc12` [compound 235, N-[4-methoxy-7-(oxan-4-yl)-[1,3]thiazolo[4,5-c]pyridin-2-yl]-1-methyl-1H-pyrazole-4-carboxamide], the IC50 at human A2A receptor is under 10 nM; on human A2B receptor it was under 10 nM; on human A1 receptor it was under 100 nM; on human A3 receptor, under 1000 nM.

Take `COc1ncc(N2CCOCC2)c2sc(NC(=O)N3CCC4(CCOC4)C3)nc12` (stereo not shown) [compound 9, 2-Oxa-7-aza-spiro[4.4]nonane-7-carboxylic acid (4-methoxy-7-morpholin-4-yl-thiazolo[4,5-c]pyridin-2-yl)-amide]: the IC50 on human A2A receptor is under 10 nM; at human A2B receptor, under 1000 nM; on human A1 receptor, over 1000 nM; on human A3 receptor, over 1000 nM.
